Active and inactive are the calls of the source. The calls are words filed in the database; no cut-off is given here.
Key:
[1] = target: T1, Transcription initiation factor TFIID subunit 1-like (Homo sapiens, UniProt Q8IZX4); test: Inhibition of TAF1L (unknown origin)
[2] = target: T2, Cyclin-dependent kinase-like 2 (Homo sapiens, UniProt Q92772); test: Inhibition of CDKL2 (unknown origin)
T2 sequence (Q92772 whole entry): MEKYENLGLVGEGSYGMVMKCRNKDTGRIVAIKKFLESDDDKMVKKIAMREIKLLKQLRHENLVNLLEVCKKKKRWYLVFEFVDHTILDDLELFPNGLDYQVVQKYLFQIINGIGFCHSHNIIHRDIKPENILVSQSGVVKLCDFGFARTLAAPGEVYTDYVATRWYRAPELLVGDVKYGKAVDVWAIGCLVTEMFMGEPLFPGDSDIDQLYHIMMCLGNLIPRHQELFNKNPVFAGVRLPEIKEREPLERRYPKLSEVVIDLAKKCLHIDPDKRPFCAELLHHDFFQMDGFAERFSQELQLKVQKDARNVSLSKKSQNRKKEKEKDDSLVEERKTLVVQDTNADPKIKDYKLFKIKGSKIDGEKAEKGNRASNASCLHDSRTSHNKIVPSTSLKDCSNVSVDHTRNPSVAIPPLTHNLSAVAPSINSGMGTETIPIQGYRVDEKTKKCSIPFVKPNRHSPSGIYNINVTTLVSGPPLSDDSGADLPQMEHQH

[3] = Oral bioavailability in Sprague-Dawley rat at 2 mg/kg; format: ADME, organism-based; conditions: in vivo
[4] = Antitumor activity against mouse LL2 cells xenografted in mouse assessed as tumor growth inhibition at 50 mg/kg,po bid measured after 26 days; format: functional; conditions: Lewis lung carcinoma, 624 h, time 26 day, read-out: TGI
[5] = Clearance in Balb/c mouse at 0.5 mg/kg,iv; format: ADME, organism-based; conditions: in vivo
[6] = Volume of distribution at steady state in Balb/c mouse at 0.5 mg/kg,iv; format: ADME, organism-based; conditions: in vivo, read-out: Vdss
[7] = target: T3, Eukaryotic translation initiation factor 2-alpha kinase 3 (Homo sapiens) (UniProt Q9NZJ5); test: Inhibition of PERK (unknown origin) assessed as fold change
T3 sequence (whole entry): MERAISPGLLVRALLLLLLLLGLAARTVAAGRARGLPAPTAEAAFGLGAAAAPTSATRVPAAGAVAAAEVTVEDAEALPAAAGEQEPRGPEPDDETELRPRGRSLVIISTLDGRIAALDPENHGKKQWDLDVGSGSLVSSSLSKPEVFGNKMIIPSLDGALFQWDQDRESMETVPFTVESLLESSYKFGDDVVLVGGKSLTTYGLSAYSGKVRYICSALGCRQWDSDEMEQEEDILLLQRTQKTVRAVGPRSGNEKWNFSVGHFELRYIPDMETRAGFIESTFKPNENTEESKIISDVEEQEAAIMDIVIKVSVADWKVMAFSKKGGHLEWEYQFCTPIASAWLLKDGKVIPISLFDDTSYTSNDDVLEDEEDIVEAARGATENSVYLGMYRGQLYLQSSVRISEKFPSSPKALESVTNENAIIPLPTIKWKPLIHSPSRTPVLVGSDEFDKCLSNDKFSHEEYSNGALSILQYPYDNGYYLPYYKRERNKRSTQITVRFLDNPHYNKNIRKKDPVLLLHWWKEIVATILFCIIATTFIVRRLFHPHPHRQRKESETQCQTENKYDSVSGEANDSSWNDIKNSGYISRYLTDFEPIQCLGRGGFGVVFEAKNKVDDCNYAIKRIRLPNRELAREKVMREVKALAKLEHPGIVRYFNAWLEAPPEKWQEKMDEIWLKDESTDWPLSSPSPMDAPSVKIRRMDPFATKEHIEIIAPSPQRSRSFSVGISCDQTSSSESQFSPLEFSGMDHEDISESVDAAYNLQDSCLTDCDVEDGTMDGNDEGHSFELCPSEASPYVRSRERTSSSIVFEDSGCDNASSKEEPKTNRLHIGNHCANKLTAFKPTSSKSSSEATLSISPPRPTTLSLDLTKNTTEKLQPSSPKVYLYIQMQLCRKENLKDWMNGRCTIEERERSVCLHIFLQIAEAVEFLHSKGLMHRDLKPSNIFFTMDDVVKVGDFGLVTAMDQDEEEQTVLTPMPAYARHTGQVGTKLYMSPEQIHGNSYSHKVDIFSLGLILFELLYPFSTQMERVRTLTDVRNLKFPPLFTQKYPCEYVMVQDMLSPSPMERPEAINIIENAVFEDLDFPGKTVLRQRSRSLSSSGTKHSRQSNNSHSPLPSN

CDK6/cyclin D3 = CDK6/cyclin D3 (Homo sapiens, UniProt Q00534); test: Inhibition of CDK6/Cyclin-D3 (unknown origin); format: protein-complex assay
[8] = target: T4, Cyclin-dependent kinase-like 3 (Homo sapiens, UniProt Q8IVW4); test: Inhibition of CDKL3 (unknown origin)
[9] = target: T5, Cyclin-dependent kinase-like 4 (Homo sapiens, UniProt Q5MAI5); test: Inhibition of CDKL4 (unknown origin)
T5 sequence (Q5MAI5 whole entry): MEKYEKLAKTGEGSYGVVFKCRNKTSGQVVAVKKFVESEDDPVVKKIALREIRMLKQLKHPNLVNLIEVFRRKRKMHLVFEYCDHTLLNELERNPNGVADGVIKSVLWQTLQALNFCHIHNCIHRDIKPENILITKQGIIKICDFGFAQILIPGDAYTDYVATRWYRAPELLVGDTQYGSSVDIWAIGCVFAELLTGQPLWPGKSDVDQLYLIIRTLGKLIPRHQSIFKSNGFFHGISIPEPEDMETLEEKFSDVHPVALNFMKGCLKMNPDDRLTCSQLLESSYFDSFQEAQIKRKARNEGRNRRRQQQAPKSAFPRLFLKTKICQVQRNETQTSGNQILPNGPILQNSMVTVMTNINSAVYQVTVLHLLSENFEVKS

Panc02 = test: Antitumor activity against […] Panc02 cells xenografted in mouse assessed as decrease in MDSC- induced suppression of CD8+ T cells at 600 nM incubated for 3 days; format: functional, cell-based; conditions: time 3.0 day
[10] = Half life in Balb/c mouse at 0.5 mg/kg,iv; format: ADME, organism-based; conditions: in vivo
eIF-2-alpha kinase GCN2 [11] = target: T6, eIF-2-alpha kinase GCN2 (Homo sapiens, UniProt Q9P2K8); test: Inhibition of GCN2 (unknown origin)
T6 sequence (Q9P2K8 whole entry): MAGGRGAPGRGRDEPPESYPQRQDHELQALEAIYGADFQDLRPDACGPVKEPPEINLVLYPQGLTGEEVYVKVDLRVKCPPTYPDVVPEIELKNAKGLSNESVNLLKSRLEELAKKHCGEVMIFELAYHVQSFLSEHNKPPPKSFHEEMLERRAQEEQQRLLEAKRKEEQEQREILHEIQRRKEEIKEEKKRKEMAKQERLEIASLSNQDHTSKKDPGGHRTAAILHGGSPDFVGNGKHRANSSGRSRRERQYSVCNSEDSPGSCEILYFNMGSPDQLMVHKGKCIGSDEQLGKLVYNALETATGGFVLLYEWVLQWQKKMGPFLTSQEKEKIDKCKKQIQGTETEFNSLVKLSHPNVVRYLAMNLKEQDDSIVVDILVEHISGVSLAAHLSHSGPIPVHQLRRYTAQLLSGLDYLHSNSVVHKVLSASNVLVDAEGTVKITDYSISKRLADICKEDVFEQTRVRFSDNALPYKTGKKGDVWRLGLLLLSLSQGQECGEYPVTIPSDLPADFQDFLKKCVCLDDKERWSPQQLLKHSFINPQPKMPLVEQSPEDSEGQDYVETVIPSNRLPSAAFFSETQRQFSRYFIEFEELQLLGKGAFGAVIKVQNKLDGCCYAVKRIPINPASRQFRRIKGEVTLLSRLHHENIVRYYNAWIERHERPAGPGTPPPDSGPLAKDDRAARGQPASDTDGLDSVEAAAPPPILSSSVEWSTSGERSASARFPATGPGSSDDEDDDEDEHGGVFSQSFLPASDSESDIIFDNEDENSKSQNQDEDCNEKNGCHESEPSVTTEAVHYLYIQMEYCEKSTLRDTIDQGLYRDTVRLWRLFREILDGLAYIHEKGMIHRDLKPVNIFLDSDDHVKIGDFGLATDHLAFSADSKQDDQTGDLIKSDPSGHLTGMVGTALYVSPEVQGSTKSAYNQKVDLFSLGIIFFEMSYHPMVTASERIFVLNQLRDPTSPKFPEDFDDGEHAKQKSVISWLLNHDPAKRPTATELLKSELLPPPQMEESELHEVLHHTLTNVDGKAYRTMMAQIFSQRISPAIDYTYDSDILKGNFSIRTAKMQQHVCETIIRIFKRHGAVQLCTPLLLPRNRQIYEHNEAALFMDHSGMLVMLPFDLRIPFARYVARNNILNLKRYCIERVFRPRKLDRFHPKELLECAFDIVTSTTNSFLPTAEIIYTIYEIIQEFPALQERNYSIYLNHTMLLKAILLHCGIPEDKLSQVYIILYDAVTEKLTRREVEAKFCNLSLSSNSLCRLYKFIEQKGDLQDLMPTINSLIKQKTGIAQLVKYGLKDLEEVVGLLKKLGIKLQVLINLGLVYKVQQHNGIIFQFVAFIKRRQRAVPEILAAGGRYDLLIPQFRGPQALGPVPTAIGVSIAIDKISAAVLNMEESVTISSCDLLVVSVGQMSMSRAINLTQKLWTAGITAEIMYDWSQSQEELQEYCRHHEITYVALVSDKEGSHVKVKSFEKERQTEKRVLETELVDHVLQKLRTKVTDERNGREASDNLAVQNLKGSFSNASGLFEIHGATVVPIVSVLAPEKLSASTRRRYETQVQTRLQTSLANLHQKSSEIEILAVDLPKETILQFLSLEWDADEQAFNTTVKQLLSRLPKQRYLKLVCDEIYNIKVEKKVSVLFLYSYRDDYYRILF

[12] = Antitumor activity against mouse LL2 cells xenografted in mouse assessed as tumor growth inhibition at 50 mg/kg,po bid in presence of anti-VEGFR antibody measured after 26 days; format: functional; conditions: Lewis lung carcinoma, 624 h, time 26 day, read-out: TGI
Mus musculus [13] = test: In vivo inhibition of GCN2 in Balb/c mouse injected with […] Renca cells assessed as reduction in ATF4 expression level at 15 mg/kg,po bid after 17 days by western blot analysis; format: functional; conditions: 408 h, time 17 day
[14] = target: T7, Eukaryotic translation initiation factor 2-alpha kinase 3 (Homo sapiens, UniProt Q9NZJ5); test: Inhibition of PERK (unknown origin)
T7 sequence (Q9NZJ5 whole entry): T3 sequence (whole entry)

[15] = target: T8, Interferon-induced, double-stranded RNA-activated protein kinase (Homo sapiens, UniProt P19525); test: Inhibition of PKR (unknown origin)
T8 sequence (P19525 whole entry): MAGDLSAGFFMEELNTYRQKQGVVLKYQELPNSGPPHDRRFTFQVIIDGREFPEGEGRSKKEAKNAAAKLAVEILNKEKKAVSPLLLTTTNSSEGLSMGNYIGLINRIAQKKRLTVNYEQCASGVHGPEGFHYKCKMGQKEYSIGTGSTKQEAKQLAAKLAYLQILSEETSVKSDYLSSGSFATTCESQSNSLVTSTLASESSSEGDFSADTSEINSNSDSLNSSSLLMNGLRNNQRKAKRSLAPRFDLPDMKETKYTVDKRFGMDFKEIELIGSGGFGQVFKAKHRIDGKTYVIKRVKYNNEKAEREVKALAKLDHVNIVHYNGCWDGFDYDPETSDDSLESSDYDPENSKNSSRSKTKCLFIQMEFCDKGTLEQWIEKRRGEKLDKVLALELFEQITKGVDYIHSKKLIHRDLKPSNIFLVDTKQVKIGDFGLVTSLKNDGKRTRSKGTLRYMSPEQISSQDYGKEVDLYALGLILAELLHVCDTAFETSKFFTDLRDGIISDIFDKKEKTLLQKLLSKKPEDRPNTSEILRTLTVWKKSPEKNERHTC

Mus musculus [16] = test: In vivo inhibition of GCN2 in Balb/c mouse injected with […] Renca cells assessed as reduction in tumor GCN2 expression level at 15 mg/kg,po bid after 17 days; format: functional; conditions: Neoplasm, 408 h, time 17 day
[17] = target: T9, Eukaryotic translation initiation factor 2-alpha kinase 1 (Homo sapiens, UniProt Q9BQI3); test: Inhibition of HRI (unknown origin)
[18] = Oral bioavailability in Balb/c mouse at 2 mg/kg; format: ADME, organism-based; conditions: in vivo
Spleen = test: In vivo inhibition of GCN2 in Balb/c mouse injected with […] Renca cells assessed as reduction in spleen GCN2 expression level at 15 mg/kg,po bid after 17 days; format: functional; conditions: 408 h, time 17 day
[19] = target: T9, Eukaryotic translation initiation factor 2-alpha kinase 1; test: Inhibition of HRI (unknown origin) assessed as fold change
[20] = target: T10, Mitogen-activated protein kinase 10 (Homo sapiens, UniProt P53779); test: Inhibition of JNK3 (unknown origin)
T10 sequence (P53779 whole entry): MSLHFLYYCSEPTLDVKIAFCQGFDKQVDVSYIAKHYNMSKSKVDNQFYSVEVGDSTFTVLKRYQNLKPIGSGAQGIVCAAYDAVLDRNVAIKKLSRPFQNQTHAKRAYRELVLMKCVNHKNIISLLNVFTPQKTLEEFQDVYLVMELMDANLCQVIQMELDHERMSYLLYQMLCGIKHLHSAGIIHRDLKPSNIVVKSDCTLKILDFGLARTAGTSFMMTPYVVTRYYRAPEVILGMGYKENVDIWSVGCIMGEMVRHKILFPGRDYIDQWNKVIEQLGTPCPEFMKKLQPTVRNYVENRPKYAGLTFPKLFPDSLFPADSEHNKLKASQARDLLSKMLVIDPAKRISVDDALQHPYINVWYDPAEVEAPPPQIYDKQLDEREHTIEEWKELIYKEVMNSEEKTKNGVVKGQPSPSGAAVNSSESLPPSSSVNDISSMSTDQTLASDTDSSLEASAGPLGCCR

[21] = target: T5, Cyclin-dependent kinase-like 4; test: Inhibition of CDKL4 (unknown origin) assessed as fold change
[22] = target: T11, Cyclin-dependent kinase-like 2 (Homo sapiens) (UniProt Q92772); test: Inhibition of CDKL2 (unknown origin) assessed as fold change
T11 sequence (whole entry): T2 sequence (Q92772 whole entry)

[23] = Plasma protein binding (unknown origin) assessed as unbound fraction; format: ADME, cell-free
[24] = target: T10, Mitogen-activated protein kinase 10; test: Inhibition of JNK3 (unknown origin) assessed as fold change
[25] = target: CDK6/cyclin D3 (Homo sapiens) (UniProt P30281+Q00534); test: Inhibition of CDK6/Cyclin-D3 (unknown origin) assessed as fold change; format: protein-complex assay
[26] = AUC (0-infinity) in Balb/c mouse at 2 mg/kg,po; format: ADME, organism-based; parameters: time infinity, dose 2 mg/kg, route po; conditions: in vivo
[27] = target: T4, Cyclin-dependent kinase-like 3; test: Inhibition of CDKL3 (unknown origin) assessed as fold change
[28] = target: T1, Transcription initiation factor TFIID subunit 1-like; test: Inhibition of TAF1L (unknown origin) assessed as fold change
[29] = […] in Sprague-Dawley rat […] assessed as half life at 0.5 mg/kg,iv; format: ADME, organism-based
[30] = target: T8, Interferon-induced, double-stranded RNA-activated protein kinase; test: Inhibition of PKR (unknown origin) assessed as fold change
eIF-2-alpha kinase GCN2 [31] = target: T6, eIF-2-alpha kinase GCN2; test: Inhibition of GCN2 in human SK-OV-3 cells assessed as reduction in phosphorylation of eIF2alpha in presence of human serum by cellular assay; format: cell-based
[32] = AUC (0-infinity) in Sprague-Dawley rat at 2 mg/kg,po; format: ADME, organism-based; parameters: time infinity, dose 2 mg/kg, route po; conditions: in vivo
eIF-2-alpha kinase GCN2 [33] = target: T6, eIF-2-alpha kinase GCN2; test: Inhibition of GCN2 in human SK-OV-3 cells assessed as reduction in phosphorylation of eIF2alpha by cellular assay; format: cell-based

T1 sequence (Q8IZX4 whole entry): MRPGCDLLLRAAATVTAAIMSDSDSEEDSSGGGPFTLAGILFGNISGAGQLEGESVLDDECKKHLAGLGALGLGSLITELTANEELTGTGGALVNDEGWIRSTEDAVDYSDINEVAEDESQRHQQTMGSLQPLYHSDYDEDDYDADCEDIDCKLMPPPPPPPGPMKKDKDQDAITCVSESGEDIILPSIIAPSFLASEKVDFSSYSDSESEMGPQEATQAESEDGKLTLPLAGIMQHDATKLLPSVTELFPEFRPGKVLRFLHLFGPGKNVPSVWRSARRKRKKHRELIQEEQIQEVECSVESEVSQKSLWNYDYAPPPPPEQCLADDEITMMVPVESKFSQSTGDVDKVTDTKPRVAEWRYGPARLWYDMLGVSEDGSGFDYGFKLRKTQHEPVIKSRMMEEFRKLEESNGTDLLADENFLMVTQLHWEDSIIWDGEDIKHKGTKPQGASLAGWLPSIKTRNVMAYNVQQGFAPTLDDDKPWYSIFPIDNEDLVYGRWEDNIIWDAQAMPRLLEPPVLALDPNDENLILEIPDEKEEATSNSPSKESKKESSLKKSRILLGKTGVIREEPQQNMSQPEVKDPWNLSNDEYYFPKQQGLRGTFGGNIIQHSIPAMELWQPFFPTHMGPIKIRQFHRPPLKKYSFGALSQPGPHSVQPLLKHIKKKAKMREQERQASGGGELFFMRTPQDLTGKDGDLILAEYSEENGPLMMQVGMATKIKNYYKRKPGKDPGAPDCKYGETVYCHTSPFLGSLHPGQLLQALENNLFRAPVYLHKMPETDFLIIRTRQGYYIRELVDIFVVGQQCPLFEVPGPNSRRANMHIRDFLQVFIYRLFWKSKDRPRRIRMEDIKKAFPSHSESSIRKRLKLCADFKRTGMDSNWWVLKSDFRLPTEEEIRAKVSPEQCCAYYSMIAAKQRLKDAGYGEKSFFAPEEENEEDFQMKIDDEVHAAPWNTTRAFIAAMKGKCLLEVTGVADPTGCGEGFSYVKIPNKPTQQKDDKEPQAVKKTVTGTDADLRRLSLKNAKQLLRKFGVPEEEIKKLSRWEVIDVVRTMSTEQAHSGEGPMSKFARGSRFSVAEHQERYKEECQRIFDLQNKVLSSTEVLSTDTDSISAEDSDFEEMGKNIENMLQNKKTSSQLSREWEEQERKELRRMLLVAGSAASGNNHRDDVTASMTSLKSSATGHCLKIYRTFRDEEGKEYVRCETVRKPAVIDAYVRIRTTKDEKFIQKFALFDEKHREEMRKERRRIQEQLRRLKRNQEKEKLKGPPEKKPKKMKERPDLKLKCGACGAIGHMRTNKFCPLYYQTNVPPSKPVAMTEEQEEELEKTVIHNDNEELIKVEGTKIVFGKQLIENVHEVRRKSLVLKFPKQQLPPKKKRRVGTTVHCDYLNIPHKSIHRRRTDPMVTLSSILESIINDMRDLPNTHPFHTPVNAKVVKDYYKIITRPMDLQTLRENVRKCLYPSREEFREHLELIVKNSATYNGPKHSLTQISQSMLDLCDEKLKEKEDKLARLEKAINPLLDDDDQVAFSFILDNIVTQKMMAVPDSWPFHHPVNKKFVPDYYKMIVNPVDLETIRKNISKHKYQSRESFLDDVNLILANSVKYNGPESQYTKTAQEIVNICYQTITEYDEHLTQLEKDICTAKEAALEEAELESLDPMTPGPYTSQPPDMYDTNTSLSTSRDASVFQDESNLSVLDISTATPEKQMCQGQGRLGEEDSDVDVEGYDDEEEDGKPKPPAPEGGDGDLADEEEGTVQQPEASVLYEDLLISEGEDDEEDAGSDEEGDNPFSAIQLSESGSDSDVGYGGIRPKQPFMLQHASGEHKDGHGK

IC50 [1]: 124 nM
IC50 [2]: 165 nM
bioavailability [3]: 80%
clearance [5]: 10 mL/min/kg
Vd [6]: 0.8 L/kg
fold change (FC) [7]: > 10000
IC50 (CDK6/cyclin D3): 191 nM
IC50 [8]: 143 nM
IC50 [9]: 118 nM
half-life [10]: 1.2 h
IC50 (eIF-2-alpha kinase GCN2 [11]): 5 nM
IC50 [14]: > 50000 nM
IC50 [15]: > 50000 nM
IC50 [17]: > 1000 nM
bioavailability [18]: 50%
fold change (FC) [19]: > 200
IC50 [20]: 101 nM
fold change (FC) [21]: 23
fold change (FC) [22]: 33
Fu [23]: 1%
fold change (FC) [24]: 20
fold change (FC) [25]: 38
AUC(0-inf) [26]: 1680 ng·h/mL
fold change (FC) [27]: 28
fold change (FC) [28]: 25
half-life [29]: 0.867 h
fold change (FC) [30]: > 10000
IC50 (eIF-2-alpha kinase GCN2 [31]): 1310 nM
AUC(0-inf) [32]: 4600 ng·h/mL
IC50 (eIF-2-alpha kinase GCN2 [33]): 16 nM
SMILES: CNC(=O)[C@]1(C)CC[C@@H](Nc2ncc3c(Br)nn(-c4ccc(-c5nnc(C)s5)cc4)c3n2)C1
inhibition in vivo at 50 mg/kg [4]: 56%
Activity (Panc02): Active
inhibition in vivo at 50 mg/kg [12]: 79%
inhibition in vivo at 15 mg/kg (Mus musculus [13]): 65%
inhibition in vivo at 15 mg/kg (Mus musculus [16]): 84%
inhibition in vivo at 15 mg/kg (Spleen): 80%

Source: ChEMBL document CHEMBL5108048, “Potent GCN2 Inhibitor Capable of Reversing MDSC-Driven T Cell Suppression Demonstrates In Vivo Efficacy as a Single Agent and in Combination with Anti-Angiogenesis Therapy” (J Med Chem, 2022)
